# From paper PMC3522636, “4F Decreases IRF5 Expression and Activation in Hearts of Tight Skin Mice” (PLoS ONE, 2012)
# Entries after “also recorded” stand apart in the source; their conditions may differ.
# Experiments:
# [1] = target: T1, IRF5 (Homo sapiens, UniProt Q13568); test: Biolayer interferometry, 4F binding to B-IRF5; conditions: B-IRF5 on SA biosensors, Octet Red 96
# T1 construct: purchased GenScript USA Inc
# T1 sequence (Q13568 1-498): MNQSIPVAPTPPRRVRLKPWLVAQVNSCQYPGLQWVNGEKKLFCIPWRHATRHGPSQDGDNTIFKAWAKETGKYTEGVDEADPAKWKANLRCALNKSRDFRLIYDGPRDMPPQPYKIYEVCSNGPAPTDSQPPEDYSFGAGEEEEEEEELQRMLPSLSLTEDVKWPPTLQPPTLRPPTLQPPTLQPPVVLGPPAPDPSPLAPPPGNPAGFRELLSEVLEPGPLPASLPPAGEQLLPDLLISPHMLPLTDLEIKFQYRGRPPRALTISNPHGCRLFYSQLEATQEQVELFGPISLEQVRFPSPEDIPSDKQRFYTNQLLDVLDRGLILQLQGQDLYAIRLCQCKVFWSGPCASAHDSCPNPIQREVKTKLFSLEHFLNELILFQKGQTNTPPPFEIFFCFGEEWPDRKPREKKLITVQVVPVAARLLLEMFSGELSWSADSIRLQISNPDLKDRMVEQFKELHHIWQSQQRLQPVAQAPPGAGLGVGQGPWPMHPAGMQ
# Protocol: Biolayer Interferometry (BLI): Protein-protein interactions were determined by BLI using an Octet Red 96™ interferometer (ForteBio, Inc, Menlo Park, CA). IRF5 was purchased (GenScript USA Inc) and labeled with biotin (cat no. 21329, Thermo Fisher Scientific, Rockford, IL) at a ratio of 1∶1, which is optimal for binding and packaging target proteins onto SA biosensors (MR18-0009, ForteBio) for studying protein-protein interactions. Biotin-labeled IRF5 (B-IRF5) was loaded onto SA-biosensors in PBS for 15 minutes to ensure saturation. The B-IRF5-loaded SA biosensors were incubated in PBS containing 4F (20 µg/ml) for 10 minutes and association measured by following increases in wavelength interference. Next the loaded biosensors were incubated in PBS alone for 10 minutes to measure dissociation of 4F from B-IRF5 by following decreases in wavelength interference.
# [2] = test system: proinflammatory HDL; conditions: cited from earlier work
# Excerpt: Scleroderma is an autoimmune disease that is characterized by marked increases in fibrosis of the skin and internal organs in conjunction with enhanced apoptosis. The tight skin (Tsk^−/+) mouse is a murine model of systemic scleroderma that replicates many of the features observed in patients suffering from this disease.
# [3] = test system: Tsk−/+ hearts; test: TUNEL assay, apoptotic cells in heart sections; type: in vivo, mouse; conditions: 4F 1 mg/kg/d, sc; 4F-treated vs untreated Tsk−/+ hearts
# Excerpt: (§1) All experimental procedures and protocols involving mice were reviewed and approved by the Institutional Animal Care and Use Committee (IACUC) of the Medical College of Wisconsin (AUA#512). They also conformed to the rules in the Guiding Principles in the Care and Use of Animals published by the American Physiologic Society and the Guide for the Care and Use of Laboratory Animals published by OLAW. Male Tsk^−/+ and C57Bl/6J mice (6–8 weeks of age) were purchased from Jackson Laboratories (Bar Harbor, ME). Three groups of mice were studied; C57Bl/6J, Tsk^−/+, and Tsk^−/+ mice treated with 4F (1 mg/kg/d, sc) as published previously.
# Hearts were harvested from mice, flash frozen and imbedded in OCT and cut into 10 µm sections. A TUNEL assay was performed on the sections using an ApopTag Plus Fluorescein labeled kit (Millipore, Billerica, MA, Cat# S7111) as per the manufacturer’s instructions. Briefly, the free 3'OH DNA termini were labeled in situ with an anti-digoxigenin antibody conjugated to fluorescein. Nuclei were stained with TO-PRO 3™ for 3 minutes (1 µg/ml, Invitrogen). Slides were mounted and analyzed by confocal microscopy (Nikon Eclipse TE2000-U, EZ-C1-2 10 software, Nikon, Melville, NY). Images were captured using 488 nm excitation for fluorescein and 633 nm for nuclear labeling. Intensity was measured using Nikon Element imaging software (Nikon).
# [4] = test system: IRF5; test: IRF5 immunoprecipitation, phosphoserine and ubiquitin on IRF5 in heart lysates; type: in vivo, mouse
# Excerpt: as §1
# To determine the effects of strain and 4F treatments on the activation state of IRF5 we immunoprecipitated IRF5 from heart homogenates and examined changes in phosphoserine and ubiquitination on IRF5 using previously published protocols, [15]. Briefly, heart homogenates were precleared with agarose beads for 1 hour followed by addition of anti-IRF5 antibody (Santa Cruz Biotechnologies) to the homogenates (500 µg in 0.5 ml) at 5 µg/100 µl (final concentration). Samples were incubated for 16 h at 4°C with end-over-end mixing. A 50 µl aliquot of a 50% slurry of Protein A agarose beads (Santa Cruz Biotechnologies) was added and incubated for 2 h with end-over-end mixing to pull-down immunocaptured IRF5. The beads were isolated by centrifugation and washed 3 times (3 minutes each time) in PBS. IRF5 was released from the beads with Laemmli sample buffer (Bio-Rad, Hercules, CA) containing mercaptoethanol and heating to 95°C for 5 min. IRF5 was separated from co-precipitated proteins by SDS-PAGE (4–15% Tris·HCl Criterion gels, Bio-Rad) and the proteins transferred onto nitrocellulose membranes. Membranes were blocked in 10% non-fat dry milk and then incubated in 2% non-fat dry milk containing polyclonal rabbit anti-phosphoserine (Antibodies-Online, Atlanta, GA, 1∶200 dilution), monoclonal mouse anti-ubiquitin (Santa Cruz Biotechnologies, 1∶200 dilution) or monoclonal mouse anti-K^63 ubiquitin (Enzo, Farmingdale, NY, 1∶500 dilution) overnight at 4°C. The next day, the membranes were gently washed and incubated with the HRP-conjugated donkey anti-rabbit antibody (1∶5,000, Santa Cruz Biotechnologies). Autoradiograms were developed; images of bands captured and densities analyzed as described above.
# [5] = target: T1, IRF5; test: B-4F pulldown assay from EC cytosolic fractions spiked with recombinant IRF5; type: binding; conditions: 3 hours at 4°C, SA agarose beads overnight at 4°C; immunoblot
# Protocol: B-4F Pulldown Assays: To determine whether 4F interacts with IRF5 in the presence of cystosol proteins, we performed 4F pulldown assays on EC cytosolic fractions spiked with recombinant IRF5. Briefly, cytosolic EC fractions were precleared with SA agarose beads (Cat#15942-050, Invitrogen) for 30 minutes at 4°C. IRF5 interactions were enhanced by adding recombinant IRF5 (2% wt/vol, Genscript USA Inc.) to the endothelial cytosolic fractions. 4F and B-4F were added to the cytosolic fractions and incubated for 3 hours at 4°C. SA agarose beads were added and the samples mixed end-over-end overnight at 4°C. The following day the SA agarose beads were isolated by centrifugation. The proteins associated with B-4F were released from the beads with Laemmli buffer and separated by SDS-PAGE (4–15%) as above. IRF5 levels in the pulldown samples were determined by autoradiography of immunoblots as above.
substance,measurement,setting,value
Ac-DWFKAFYDKVAEKFKEAF-NH2 [4F],association with B-IRF5,"[1]; 4F 20 µg/ml in PBS, 10 minutes",rapidly associated
same,association versus dissociation with IRF5,[1]; 4F 20 µg/ml,favoring association over dissociation; also recorded: favors association over dissociation; also recorded: rate of 4F association with IRF5 is faster than their rate of dissociation
same,dissociation from B-IRF5,"[1]; PBS alone, 10 minutes",slow
same,proinflammatory HDL levels,[2],decrease proinflammatory HDL levels
same,TUNEL positive (apoptotic) cells,[3],decreased both measurements in Tsk^−/+ hearts; also recorded: significantly decreased the number of TUNEL positive cells in Tsk^−/+ hearts compared to the number in untreated Tsk^−/+ hearts but not to the level of TUNEL positive cells in C57Bl/6J hearts; also recorded: increased compared with the levels in the hearts of C57BL/6J mice and hearts from 4F-treated Tsk^−/+ mice; also recorded: fewer apoptotic cells than hearts from untreated Tsk^−/+ mice
same,phosphoserine levels on IRF5 (in words),"[4]; 4F 1 mg/kg/d, sc, Tsk−/+ hearts, IRF5 immunoprecipitates",decrease phosphoserine; also recorded: reduced phosphoserine levels on IRF5 in Tsk^−/+ hearts
same,decrease of phosphoserine levels on IRF5,"[4]; 4F-treated Tsk−/+ hearts vs C57BL/6J and untreated Tsk−/+ hearts, IRF5 immunoprecipitates, Western blot",about 15%
same,total ubiquitin on IRF5,"[4]; 4F-treated Tsk−/+ hearts vs C57BL/6J hearts, * = p<0.05, n = 4, IRF5 immunoprecipitates",increase total ubiquitin on IRF5; also recorded: increased in 4F-treated Tsk^−/+ hearts compared with the levels on IRF5 in C57BL/6J hearts; also recorded: significantly increased total ubiquitin levels on IRF5 in the Tsk^−/+ hearts
same,IRF5 activation (in words),"[4]; 4F-treated Tsk−/+ hearts, inferred from phosphoserine and ubiquitin on IRF5",decrease IRF5 expression and activation in Tsk^−/+ hearts; also recorded: inactivated in 4F-treated Tsk^−/+ hearts
same,association with IRF5 in presence of EC cytosolic proteins (in words),[5],strong enough to pull down IRF5 from a mixture of endothelial cell cytosolic proteins; also recorded: this interaction exists even in the presence of EC cytosolic proteins
